Patent US20220387457A1 (Qlaris Bio, Inc., priority 2020, published 2022)
“Also recorded” adds a separate entry of the source.

Tests used:
[1] = biological target: T1, human Kir6.2/SUR2B KATP channel (Homo sapiens, UniProt O60706); assay: FLIPR membrane potential assay in HEK-Kir6.2/SUR2B cells; assay type: cell-based; conditions: for hyperpolarization / activation of Kir6.2/SUR2B KATP channels: up to 100 μM
T1 construct: expressed in transfected cells
Description: The ability of CKLP1 and the active moiety of CKLP1, leveromakalim, to pharmacologically modulate the function of the human ATP-sensitive potassium channel comprised of Kir6.2 (encoded by the human gene KCNJ11) coupled to the sulfonylurea receptor SUR2B (encoded by the human gene ABCC9) was studied.
Compounds were dissolved up to 10 mM stock solution in DMSO. Ten-point concentration response curves were generated at 100× concentration in 100% DMSO. Compound source plates were made by serially diluting 10 mM compound stocks in DMSO to generate a progressive semilog dilution schema. Dose response stock plate (10 μL) were then transferred into assay plates containing 90 μL of assay buffer, generating 10× working concentrations. Final assay test concentration ranges of 100 μM to 0.003 μM with a final DMSO concentration of 1.0%.
Human embryonic kidney (HEK) cells stably expressing human Kir6.2/SUR2B KATP channel subunits were plated onto 96 well, black poly-d-lysine (PDL)-coated microplates and maintained in growth media the day prior to use for experiments. Media was removed from the plates and 90 μL of 1× stock of the membrane potential sensitive fluorescent dye FMP-Blue resuspended in assay buffer (EBSS—in mM: NaCl 145, KCl 2, Glucose 5, CaCl2) 1.8, MgCl2 0.8, HEPES 10, pH 7.4 with NaOH, 290-300 mOSm) was added to the cells. Cells were incubated at room temperature, protected from light, for 45-60 minutes. After the incubation period, cell, test compound and glibenclamide plates were loaded onto the fluorescence plate reader (FLIPR-TETRA™) and the scanning initiated. The FLIPR measured a 10 second baseline and then added 10 μL of 10× the final desired concentration of test agent. Changes in fluorescence were monitored for an additional 5 minutes. After the 5-minute compound incubation, 10 μL of the receptor inhibitor glibenclamide was added to the cell plate (10 uM final glibenclamide concentration). Changes in fluorescence was then monitored for an additional 5 minutes.
Compound modulation of Kir6.2/SUR2B KATP channel mediated changes in cellular membrane potential was determined as follows. After the administration of compound, FMP fluorescence was monitored for a 5-minute period. The following parameters were recorded and exported from the FLIPR: the average relative fluorescence response (RFU) of 5 images taken at the 5-minute point in the assay with the average background EBSS buffer response subtracted. […] Test agent effect was calculated as % activation using the following formula: […]
Curve fits were performed in GraphPad Prism graphing software using a 4-parameter, variable slope fit equation.

acid phosphatase = assay: Conversion of CKLP1 by acid phosphatase, LC/MS-MS, pH 7.4; assay type: biochemical, human; conditions: up to 2 hours
Description: Conversion of CKLP1 (200 μM-5.0 mM) was examined by LC/MS-MS following incubation at pH 7.4 with either human alkaline phosphatase (ALP), acid phosphatase, or 5′-nucleotidase (2.01 nM-1.0 μM) for up to 2 hours.

[2] = In vitro conversion of CKLP1 to levcromakalim in human ocular tissues and fluids; assay type: in vitro ADME; conditions: 10 μM CKLP1, 37° C.
Description: Aqueous humor was collected from each eye and combined in a single 1.5-mL tube. The eyes were then bisected at the equator, and vitreous humor was collected from both eyes, combined, and placed in a 15-mL conical tube and centrifuged at 1500 rpm for 10 minutes. Following centrifugation, the upper supernatant phase (less viscous region) was isolated and placed in a 1.5-mL tube. Tubes containing aqueous and vitreous humor were stored on ice. The following tissues were dissected from the eyes: cornea, retina, optic nerve, sclera, iris, ciliary body, and trabecular meshwork. The tissue samples were placed in 1.5-mL tubes containing approximately 200 μL of 50 mM Tris buffer pH 7.1. Each sample, except for the optic nerve sample, contained tissue from both eyes. Samples were stored on ice. Tissues were independently homogenized with a Polytron PT 1200 (setting 8) and placed on ice. The trabecular meshwork was lysed using a small pestle. In between samples, the homogenizer was cleaned and washed thoroughly with a minimum of 200 mL of distilled water.
Remaining tissue and debris were pelleted in an Eppendorf 5415C centrifuge at 13,000 rpm for 2 minutes. Supernatants were isolated and placed in clean 1.5-mL tubes. A Bradford protein assay was performed with 5 μL of supernatant of each sample. At the completion of the assay, 200-μL aliquots of each sample were placed in a 96-well plate, and protein concentrations were read using a TECAN Infinite® M200 plate reader at 595 nm. The final concentrations for all samples was 150 μg of protein in a solution of 10 μM CKLP1, except for vitreous humor, which only contained 100 μg of protein in 10 μM CKLP1 due to low protein concentration. There were 18 samples in total. Samples were mixed, briefly centrifuged and then, for each sample, a 100-μL portion was removed and placed in a new tube so that both tubes contained 100 μL (75 μg of protein each except vitreous humor, which contained 50 μg each). All pairs of samples were placed in incubation at 37° C. For each pair of tubes, one tube was incubated for 4 hours and one tube for 24 hours. At the completion of the incubation period, 200 μL of acetonitrile was added to each tube and mixed. Tubes were briefly centrifuged and placed at −80° C.

mice (IOP) = conditions: previously reported; cited from earlier work
[3] = tested on: α-SMA, CD31, endothelin-I, fibronectin, VE-cadherin, phospho-eNOS and total eNOS; assay: Protein expression (western blot, immunocytochemistry) in 3D HTM/SC constructs; assay type: cell-based, human; conditions: levcromakalim 1, 10 or 100 μM; Y-27632 10 μM
Description: Bioengineered 3D conventional outflow tract constructs using 4 donors (ages 47-91) were treated with […] (5 ng/mL) for 6 days. […] Protein expression of α-smooth muscle actin (α-SMA), CD31, endothelin-I, fibronectin, VE-cadherin, phospho-eNOS and total eNOS was analyzed via western blot. Cellular expression of α-SMA, fibronectin, phospho-eNOS and total eNOS was determined by immunocytochemistry and confocal microscopy. Statistical significance was determined by one-way ANOVA with a Tukey's multiple comparisons test, or by two-way ANOVA.

T1 sequence (O60706 1-1549 isoform O60706-2): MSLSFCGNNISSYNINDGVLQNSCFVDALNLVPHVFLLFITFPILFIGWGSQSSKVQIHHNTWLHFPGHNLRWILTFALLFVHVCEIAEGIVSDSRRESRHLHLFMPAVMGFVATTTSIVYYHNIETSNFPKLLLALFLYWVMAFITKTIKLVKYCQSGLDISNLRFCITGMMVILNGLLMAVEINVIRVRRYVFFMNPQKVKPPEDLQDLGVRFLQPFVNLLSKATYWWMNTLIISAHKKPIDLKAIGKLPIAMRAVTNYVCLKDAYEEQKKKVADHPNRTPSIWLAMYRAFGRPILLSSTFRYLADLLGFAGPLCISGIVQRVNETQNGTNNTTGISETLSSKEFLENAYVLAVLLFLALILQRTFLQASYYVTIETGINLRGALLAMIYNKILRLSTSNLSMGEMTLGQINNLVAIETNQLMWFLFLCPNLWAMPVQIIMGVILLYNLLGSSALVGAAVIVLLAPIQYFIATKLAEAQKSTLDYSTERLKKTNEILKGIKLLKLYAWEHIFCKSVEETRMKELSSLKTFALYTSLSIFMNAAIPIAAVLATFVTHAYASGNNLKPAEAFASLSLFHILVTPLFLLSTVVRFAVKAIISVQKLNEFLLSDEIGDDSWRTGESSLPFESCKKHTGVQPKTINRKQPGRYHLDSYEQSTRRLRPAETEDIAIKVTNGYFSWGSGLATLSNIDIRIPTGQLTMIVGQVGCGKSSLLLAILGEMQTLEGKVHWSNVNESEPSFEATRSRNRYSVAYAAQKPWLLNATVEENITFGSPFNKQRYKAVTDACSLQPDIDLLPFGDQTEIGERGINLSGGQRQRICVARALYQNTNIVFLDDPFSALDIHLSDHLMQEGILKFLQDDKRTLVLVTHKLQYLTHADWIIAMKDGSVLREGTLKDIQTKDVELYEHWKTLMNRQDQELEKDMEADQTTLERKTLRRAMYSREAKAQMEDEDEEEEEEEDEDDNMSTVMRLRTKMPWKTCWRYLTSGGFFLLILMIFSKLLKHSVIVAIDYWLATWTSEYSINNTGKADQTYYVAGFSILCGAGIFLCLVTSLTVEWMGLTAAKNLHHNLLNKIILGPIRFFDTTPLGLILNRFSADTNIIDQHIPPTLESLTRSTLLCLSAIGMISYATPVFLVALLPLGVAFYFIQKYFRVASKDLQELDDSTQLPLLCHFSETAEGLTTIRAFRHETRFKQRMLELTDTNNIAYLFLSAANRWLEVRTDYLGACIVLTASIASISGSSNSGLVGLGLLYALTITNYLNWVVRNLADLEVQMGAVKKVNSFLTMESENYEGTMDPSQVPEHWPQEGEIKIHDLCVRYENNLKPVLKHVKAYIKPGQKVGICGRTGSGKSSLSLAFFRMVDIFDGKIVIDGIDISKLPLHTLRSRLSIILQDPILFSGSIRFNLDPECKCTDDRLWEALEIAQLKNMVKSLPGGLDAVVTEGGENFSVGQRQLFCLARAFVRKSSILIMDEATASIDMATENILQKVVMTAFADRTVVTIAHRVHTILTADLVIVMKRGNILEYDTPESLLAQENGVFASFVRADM
T1 sequence (Q14654 whole entry partner): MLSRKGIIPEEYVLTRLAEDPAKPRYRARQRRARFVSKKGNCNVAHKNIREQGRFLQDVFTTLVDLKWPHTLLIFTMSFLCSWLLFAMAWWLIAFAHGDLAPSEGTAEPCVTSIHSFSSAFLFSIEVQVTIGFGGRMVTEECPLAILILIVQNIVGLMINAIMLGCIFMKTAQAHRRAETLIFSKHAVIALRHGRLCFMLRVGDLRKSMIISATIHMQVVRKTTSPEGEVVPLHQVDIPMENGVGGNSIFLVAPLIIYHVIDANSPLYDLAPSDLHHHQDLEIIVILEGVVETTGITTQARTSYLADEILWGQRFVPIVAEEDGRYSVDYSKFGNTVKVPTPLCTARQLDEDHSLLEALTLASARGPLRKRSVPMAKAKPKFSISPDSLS

SMILES	EC50 ([1]; ability to modulate KATP channel, HEK-Kir6.2/SUR2B cells, normalized to 100 uM pinacidil, read-out: EC50 (μM) (mean ± SEM)) [µM]	Emax at 100 µM ([1]; read-out: maximal response, % activation) [%]	hyperpolarization / activation of Kir6.2/SUR2B KATP channels [1]	conversion of CKLP1 to levcromakalim (acid phosphatase)	conversion of CKLP1 to levcromakalim over 24 hours ([2]; human aqueous humor)	conversion of CKLP1 to levcromakalim over 24 hours ([2]; human ciliary body) [%]	conversion of CKLP1 to levcromakalim over 24 hours ([2]; human cornea) [%]	conversion of CKLP1 to levcromakalim over 24 hours ([2]; human iris) [%]	conversion of CKLP1 to levcromakalim over 24 hours ([2]; human optic nerve) [%]	conversion of CKLP1 to levcromakalim over 24 hours ([2]; human retina) [%]	conversion of CKLP1 to levcromakalim over 24 hours ([2]; human sclera) [%]	conversion of CKLP1 to levcromakalim over 24 hours ([2]; human trabecular meshwork) [%]	conversion of CKLP1 to levcromakalim over 24 hours ([2]; human vitreous humor)	IOP lowered by (mice (IOP))	hyperpolarization reversed by coadministration of glibenclamide ([1]; glibenclamide 10 μM)	expression of the cell adhesion proteins CD31 and VE-Cadherin [3]
CC1(C)Oc2ccc(C#N)cc2[C@@H](N2CCCC2=O)[C@@H]1OP(=O)(O)O [CKLP1]	> 100	9.4	did not result in any significant hyperpolarization; also recorded: failed to produce any significant activation	not	not	2.6	0.8	3.9	0.9	0.7	1.6	1.6	not	approximately 17%	–	–
CC1(C)Oc2ccc(C#N)cc2[C@@H](N2CCCC2=O)[C@@H]1O [Levcromakalim, levcromakalim, reference compound]	–	–	concentration-dependent hyperpolarization	–	–	–	–	–	–	–	–	–	–	–	reversed	did not significantly affect
